Values joined by “and” are separate entries in the source; they are usually repeats but may differ in a detail not shown here. Equal entries are not always repeated.
What was measured:
macrophages = test: Toxicity to macrophages in culture; type: cell-based, murine; settings: 0.9 mg/ml
Excerpt: (§1) The reduction was directly related to the concentration of pirfenidone in the culture media.

WEHI 164 cells = test: Inhibition of synthesis and/or release of TNF-α from WEHI 164 cells; type: cell-based; settings: in vitro, 33-900 micrograms/milliliter
Excerpt: (§2) In vitro, pirfenidone at concentrations of 33-900 micrograms/milliliter inhibited the synthesis and/or release of excessive and pathophysiologic amounts of TNF-α from WEHI 164 cells (Table 1, page 40). […]
(§3) The ability of pirfenidone and related compounds to block the synthesis and the release of TNF-α from macrophages, as well as other cells, was bioassayed by the method of Morgan, Mills, D.L. Lefkowitz, and S.S. Lefkowitz ("An Improved Colorimetric Assay for Tumor Necrosis Factor Using […] Cells Cultured on Novel Microtiter Plates," Jour. Immunol. Method., 145:259-262, 1991).

[1] = tested on: WEHI neoplastic fibroblast cells; test: Killing of WEHI neoplastic fibroblast cells by TNF-α; type: cell-based; settings: in vitro, 33 to 300 micrograms/milliliter
Excerpt: as §2

[2] = Diffusion capacity of the lungs (serial DLCO) in patients with pulmonary dysfunction; type: in vivo; settings: oral, preliminary tests
TNF-α [3] = test: In vivo induction of circulating (serum) TNF-α by LPS in mice
Description: This model is a modification of that previously described for the in vivo induction of circulating TNF-α, (Haranaka et al., Cancer Immunol. Immunother, 18:87-90,1984).
The bioassays for TNF-α were confirmed in monitoring tests by using a modification of the basic sandwich ELISA method (Winston et al., "Current Protocols in Molecular Biology," page 11.2.1, Ausubel et al., Ed. 1987.) All other plasma levels of TNF were measured using a modification of the basic sandwich ELISA method (Winston et al., "Current Protocols in Molecular Biology," Pg. 11.2.1, Ausubel et al., Ed. 1987.).
The LPS was injected intravenously into the mice at a dosage of 2.5 micrograms (in a volume of […] from a stock solution of 100 micrograms per […]) per mouse, and the Pirfenidone was administered immediately thereafter. The mice were then bled by cardiac puncture 90 minutes later. Subsequently, the serum was analyzed for TNF-α by a ELISA kit (Endogen).

TNF-α [4] = test: Endotoxin [LPS] shock in animals (Example III); type: in vivo; settings: i.p. dosages of 30-400 milligrams per kilogram of body weight
TNF-α [5] = test: TNF-α synthesis within lysed macrophages, ELISA (Example II); type: cell-based, murine; settings: 60 minutes
Description: In order to determine the direct impact of graded concentrations of pirfenidone upon the synthesis of TNF-α within the cytoplasm of murine macrophages, cell cultures of macrophages, grown in appropriate culture media, were treated with the respective concentrations pirfenidone for 60 minutes: (1) without exposure to LPS (controls) and (2) exposure to 1.0 pg/ml of LPS (E. coli.). Promptly after an exposure for 60 minutes, (a) the macrophages were separated from the culture medium by centrifugation, and (b) the macrophages were lysed. Subsequently, the lysed contents (cell cytoplasm and nucleus) from the macrophage cells were assayed via ELISA for TNF-α levels.

[6] = Lethality caused by LPS plus D-galactosamine in mice (Example IV); type: in vivo
TNF-α [7] = test: TNF induction by macrophages exposed to LPS (TNF bioassay of culture medium); type: cell-based, murine; settings: for TNF induction by macrophages exposed to LPS, Mean +/- S.E.: mean of experiments 1-6
Excerpt: as §1, §3

TNF-α [8] = settings: cited from earlier work
THP-1 cells = settings: LPS-activated THP-1 cells; read-out: 1C50S, inhibition of TNF-α secretion; cited from earlier work
TNF-α [9] = settings: oral dosing, serum TNF-α; cited from earlier work
human T cells = settings: cited from earlier work; for inhibition of T cell activation (proliferation and IL-2 secretion): anti-CD3 antibody
mouse T cells = settings: cited from earlier work; for inhibition of T cell activation (proliferation and IL-2 secretion): anti-CD3 antibody

Cc1ccc(=O)n(-c2ccccc2)c1 [pirfenidone, 5-Methyl-1-phenyl-2-(1H)-pyridone]
toxicity with macrophages (macrophages): No toxicity was apparent
synthesis and/or release of excessive and pathophysiologic amounts of TNF-α from WEHI 164 cells (WEHI 164 cells): inhibited
killing of WEHI neoplastic fibroblast cells by TNF-α [1]: did not inhibit
diffusion capacity of the lungs as measured by serial DLCO determinations [2]: marked, rapid and consistent improvement
inhibition of the rise in TNF-α serum levels as compared to Control Group (TNF-α [3]; LPS 2.5 micrograms i.v. per mouse, bled 90 minutes later): 50%
formation and release of TNF-α into the circulation (TNF-α [3]; mice, 200 milligrams per kilogram intraperitoneal or greater, maintained for hours): complete blockage
efficacy when given orally (rise in TNF-α serum levels) (TNF-α [3]; oral, same dosages): effective in the same dosages
pathophysiological toxic effects of TNF-α (endotoxin [LPS] shock) (TNF-α [4]): inhibited or completely blocked
LPS induced rise in TNF-α synthesis within cytoplasm and nucleus of macrophages (TNF-α [5]; LPS (E. coli.) 1.0 pg/ml, concentration related, P< 0.01): inhibition
levels of TNF-α within the cytoplasm of the macrophages (TNF-α [5]; controls, no exposure to LPS, 0.9 mg/ml): only baseline levels were found
serum levels of TNF-α in the surviving mice ([6]; 300 mg/kg i.p. 30 minutes prior to LPS plus D-galactosamine): approached normal baseline levels
mortality ([6]; 300 mg/kg i.p. 30 minutes prior to i.v. LPS plus 600mg/kg i.p. D-galactosamine, observed 2 days, 100.0% without pirfenidone): 10.0%
TNF induction by macrophages exposed to LPS, Mean +/- S.E. (TNF-α [7]; Pirfenidone 100 micrograms/ml): 144+/-29 Relative TNF Units
TNF induction by macrophages exposed to LPS (TNF-α [7]; Pirfenidone 100 micrograms/ml, pre-incubation 0 hours): 109 Relative TNF Units and 87 Relative TNF Units
TNF induction by macrophages exposed to LPS (TNF-α [7]; Pirfenidone 100 micrograms/ml, pre-incubation 24 hours): 209 Relative TNF Units
TNF induction by macrophages exposed to LPS, Mean +/- S.E. (TNF-α [7]; Pirfenidone 300 micrograms/ml): 84+/-31 Relative TNF Units
TNF induction by macrophages exposed to LPS (TNF-α [7]; Pirfenidone 300 micrograms/ml, pre-incubation 24 hours): 143 Relative TNF Units
TNF induction by macrophages exposed to LPS, Mean +/- S.E. (TNF-α [7]; Pirfenidone 900 micrograms/ml): 43+/-18 Relative TNF Units
TNF induction by macrophages exposed to LPS (TNF-α [7]; Pirfenidone 900 micrograms/ml, pre-incubation 24 hours): 111 Relative TNF Units
level of TNF-α secreted into the culture medium (TNF-α [7]; thioglycollate-induced murine peritoneal macrophages exposed to LPS, P<0.01): markedly reduced level

OCc1cc(C(O)CNCCCCCCOCCCCc2ccccc2)ccc1O (stereo not shown) [salmeterol]
inhibition of serum TNF-α levels (TNF-α [8]; LPS/galactosamine endotoxic shock): up to 94%
animals protected from the lethal effects of the LPS/galactosamine mixture (TNF-α [8]; in vivo): less than 50%
IC50 (THP-1 cells): ~100 nM
duration of efficacy (TNF-α [9]): 3 h
inhibition of T cell activation (proliferation and IL-2 secretion) (human T cells): able to inhibit
T cell inhibition, fold less potent than that for TNF-α production (human T cells): about 10 fold
inhibition of T cell activation (proliferation and IL-2 secretion) (mouse T cells): able to inhibit
T cell inhibition, fold less potent than that for TNF-α production (mouse T cells): about 10 fold

CC(C)(C)NCC(O)c1ccc(O)c(CO)c1 (stereo not shown) [albuterol]
duration of efficacy (TNF-α [9]): much shorter duration of action
inhibition of T cell activation (proliferation and IL-2 secretion) (human T cells): completely inactive
inhibition of T cell activation (proliferation and IL-2 secretion) (mouse T cells): completely inactive

From patent publication EP0866656B1, “USE OF N-SUBSTITUTED PYRIDONES AS TUMOR NECROSIS FACTOR ALPHA INHIBITORS” (MARGOLIN, Solomon B., priority 1995, dated 1997)
